In ChEMBL document CHEMBL1131699, “Monoacetyldiglycerides as new Ca2+ mobilizing agents in rat pancreatic acinar cells” (1999):
Activity calls are given as the source filed them. The calls are words filed in the database; no cut-off is given here.

Columns and labels:
[1] = organism: Rattus norvegicus; experiment: Compound was tested in vitro for its ability to increase [Ca+2] in pancreatic acinar cells at a concentration of 0.01 mg/mL.; type: functional
[2] = organism: Rattus norvegicus; experiment: Compound was tested in vitro for its ability to increase the rate of [Ca+2] mobilization in pancreatic acinar cells; type: functional
[3] = organism: Rattus norvegicus; experiment: Compound was tested in vitro for its ability to increase [Ca+2] in pancreatic acinar cells at a concentration of 0.01 mg/mL; Active; type: functional, cell-based

SMILES	Increase in [Ca+2] [1]	Rate of [Ca+2] increase [2]	Increase in [Ca+2] [3]
CCCCC/C=C\C/C=C\CCCCCCCC(=O)OC(COC(C)=O)COC(=O)CCCCCCCCCCCCCCC (centres undefined) [MOSEDIPIMOD]	84.9 nM	9.8 nM/min	
CCCCCCCCCCCCCCCC(=O)OCC(COC(C)=O)OC(=O)[C@H]1C[C@@H]1c1ccccc1 (some centres undefined)			Active
CCCCCCCC/C=C\CCCCCCCC(=O)OCC(COC(C)=O)OC(=O)CCCCCCCCCCCCCCC (centres undefined)	31.2 nM		
CC/C=C\C/C=C\C/C=C\C/C=C\C/C=C\C/C=C\CCC(=O)OC(COC(C)=O)COC(=O)CCCCCCCCCCCCCCC (centres undefined)	75.2 nM	26.7 nM/min	
CCCCC/C=C\C/C=C\C/C=C\C/C=C\CCCC(=O)OC(COC(C)=O)COC(=O)CCCCCCCCCCCCCCC (centres undefined)	32.8 nM		
CC/C=C\C/C=C\C/C=C\CCCCCCCC(=O)OC(COC(C)=O)COC(=O)CCCCCCCCCCCCCCC (centres undefined)			Active
CCCCCCCC/C=C\CCCCCCCC(=O)OC(COC(C)=O)COC(=O)CCCCCCCCCCCCCCC (centres undefined)	26.6 nM		
